For one experiment, the system named is HCT116 cells. Description: Inhibitory effect against cancer cell proliferation (MTT). It is filed as cell-based, human. The settings on record: Homo sapiens, read-out: IC50 (uM) @ HCT116. On the procedure: The formazane crystals thus formed were dissolved using dimethyl sulfoxide (DMSO) and absorbance of the solution was measured at 560 nm. After culturing for 48 hours, […] synthesized in Examples was indicated as cell viability (%) according to each treated concentration.

A further experiment has as its system AMPKa [pT172]. Nature of the experiment: AMPKa activation [pT172] in MCF7 cell. It is filed as cell-based.

SMILES strings stand for the structures. Where a name gives a salt, the structure may show the parent alone. Read-outs that look alike come from different tables or passages of the source.

A word on the IC50: it is the concentration needed to halve the response being measured. With `Cl.N=C(NC1=NC(=O)CCN1)N1CCCCC1` [Example 156, N-(4-oxo-1,4,5,6-tetrahydropyrimidin-2-yl)piperidin-1-carboximidamide Hydrochloride], the IC50 in the experiment on HCT116 cells (HCT-116, HCT116, MTT, 48 hours) was > 100 µM. The “AMPKa activation [pT172] (Unit/ml) @ MCF7 cell” value (“AMPKa activation [pT172]” for short) was 3.6 Unit/ml in the experiment with AMPKa [pT172] (5 uM), 2.6 Unit/ml with AMPKa [pT172] (10 uM) and 4.9 Unit/ml in the experiment on AMPKa [pT172] (50 uM).
On the same counts, the results for `Cl.N=C(N)NC(=N)N1CCCCC1` [Example 123, N1-piperidine Biguanide Hydrochloride] are > 100 µM, 6.6 Unit/ml, 7.5 Unit/ml and 12.6 Unit/ml.
In the case of `CC(=O)c1ccc(NC(=N)NC(=N)N2CCCC2)cc1.Cl` [Example 70, N1-pyrrolidin-N5-(4-acetyl)phenyl Biguanide Hydrochloride], in the experiment on HCT116 cells (HCT-116, HCT116, MTT, 48 hours), the concentration for half-maximal inhibition (IC50) is > 100 µM. Moreover, the figures for the “AMPKa activation [pT172]” value with AMPKa [pT172] (5 uM), with AMPKa [pT172] (10 uM) and with AMPKa [pT172] (50 uM) were 3.5 Unit/ml, 4.0 Unit/ml and 5.4 Unit/ml, respectively.
`Cl.N=C(NC(=N)N1CCCC1)Nc1cccc(Cl)c1Cl` [Example 78, N1-pyrrolidin-N5-(2,3-dichloro)phenyl Biguanide Hydrochloride]: in the experiment with HCT116 cells (HCT-116, HCT116, MTT, 48 hours), the IC50 turned out to be 58.3 µM. Moreover, the “AMPKa activation [pT172]” value was determined as 3.4 Unit/ml in the experiment with AMPKa [pT172] (5 uM), 3.4 Unit/ml in the experiment with AMPKa [pT172] (10 uM) and 3.8 Unit/ml with AMPKa [pT172] (50 uM).
Turning to `CN1CCN(C(=N)NC(=N)Nc2ccc(Cl)c(Cl)c2)CC1.Cl` [Example 37, N1-(4-methyl)piperazin-N5-(3,4-dichloro)phenyl Biguanide Hydrochloride], in the experiment with HCT116 cells (HCT-116, HCT116, MTT, 48 hours), the IC50 is 32.8 µM. For the same molecule, the “AMPKa activation [pT172]” value worked out at 5.8 Unit/ml with AMPKa [pT172] (5 uM), 7.5 Unit/ml in the experiment on AMPKa [pT172] (10 uM) and 15.0 Unit/ml with AMPKa [pT172] (50 uM).
On to `Cl.N=C(NC(=N)N1CCCC1)Nc1ccc(SC(F)(F)F)cc1` [Example 79, N1-pyrrolidin-N5-(4-trifluoromethylthio)phenyl Biguanide Hydrochloride], for which, in the experiment on HCT116 cells (HCT-116, HCT116, MTT, 48 hours), the IC50 was 7.9 µM. Moreover, the “AMPKa activation [pT172]” value is 7.8 Unit/ml with AMPKa [pT172] (5 uM), 11.7 Unit/ml with AMPKa [pT172] (10 uM) and “cell death” in the experiment on AMPKa [pT172] (50 uM).
Take `CC1CCN(C(=N)NC(=N)Nc2ccc(OC(F)(F)F)cc2)CC1.Cl` [Example 52, N1-(4-methyl)piperidin-N5-(4-trifluoromethoxy)phenyl Biguanide Hydrochloride]: the 50% inhibitory concentration (IC50) with HCT116 cells (HCT-116, HCT116, MTT, 48 hours) amounted to 6.8 µM. Moreover, the “AMPKa activation [pT172]” value in the experiment with AMPKa [pT172] (5 uM) was 9.4 Unit/ml; in the experiment on AMPKa [pT172] (10 uM), 15.0 Unit/ml; in the experiment with AMPKa [pT172] (50 uM) it was “cell death”.
`CC1CCN(C(=N)NC(=N)Nc2ccc(C(F)(F)F)c(F)c2)CC1.Cl` [Example 57, N1-(4-methyl)piperidin-N5-(3-fluoro-4-trifluoromethyl)phenyl Biguanide Hydrochloride]: the IC50 in the experiment on HCT116 cells (HCT-116, HCT116, MTT, 48 hours) was found to be 2.5 µM. Also, the results for the “AMPKa activation [pT172]” value in the experiment with AMPKa [pT172] (5 uM), in the experiment with AMPKa [pT172] (10 uM) and with AMPKa [pT172] (50 uM) were 6.7 Unit/ml, 12.1 Unit/ml and “cell death”, respectively.
For `Cl.N=C(N)NC(=N)NCc1ccc2c(c1)OCO2` [Example 112, N1-(benzo[d][1,3]dioxol-5-yl)methyl Biguanide Hydrochloride], the IC50 in the experiment on HCT116 cells (HCT-116, HCT116, MTT, 48 hours) was > 100 µM. Further, the “AMPKa activation [pT172]” value with AMPKa [pT172] (50 uM) is 10.6 Unit/ml.
Take `COc1ccc(CNC(=N)NC(=N)N)cc1` [Example 131, N1-(4-methoxy)benzyl Biguanide Hydrochloride]: in the experiment on HCT116 cells (HCT-116, 48 h), the half-maximal inhibitory concentration (IC50) is > 100 µM. Also, the “AMPKa activation [pT172]” value with AMPKa [pT172] (50 uM) turned out to be 17.6 Unit/ml.
For `CC1CCN(C(=N)NC(=N)Nc2ccc(Br)cc2)CC1.Cl` [Example 48, N1-(4-methyl)piperidin-N5-(4-bromo)phenyl Biguanide Hydrochloride], in the experiment on HCT116 cells (HCT-116, HCT116, MTT, 48 hours), the 50% inhibitory concentration (IC50) is 8.6 µM. Moreover, the “AMPKa activation [pT172]” value is 4.3 Unit/ml in the experiment on AMPKa [pT172] (5 uM), 6.8 Unit/ml in the experiment on AMPKa [pT172] (10 uM) and “cell death” in the experiment with AMPKa [pT172] (50 uM).
Take `Cl.N=C(NC(=N)N1CC=CC1)Nc1cccnc1` [Example 66, N1-2,5-dihydro-1H-pyrrol-N5-pyridin-3-yl Biguanide Hydrochloride]: the 50% inhibitory concentration (IC50) in the experiment on HCT116 cells (HCT-116, HCT116, MTT, 48 hours) is > 100 µM. The “AMPKa activation [pT172]” value in the experiment with AMPKa [pT172] (5 uM) came out at 3.3 Unit/ml; with AMPKa [pT172] (10 uM), 3.7 Unit/ml; in the experiment on AMPKa [pT172] (50 uM), 4.1 Unit/ml.

Source of the values: US11572341B2, “Biguanide compound and use thereof” (ImmunoMet Therapeutics Inc., priority 2014, dated 2023).
